Our source for the IC50 values is patent publication US20190225650A1, “PEPTIDOMIMETIC MACROCYCLES AND USE THEREOF IN REGULATING HIF1ALPHA” (AILERON THERAPEUTICS, INC., priority 2013, published 2019).

Bridge positions count the residues as written; N and C are the ends. Square brackets hold non-standard residues; d marks the D form. Peptide text beside a SMILES is read from it. Ala(3-Me-diazirin-3-yl) = CC1(C[C@H](N)C(=O)O)N=N1; R8 = C=CCCCCCC[C@@](C)(N)C(=O)O; S5 = C=CCCC[C@](C)(N)C(=O)O; Nle = CCCC[C@H](N)C(=O)O

This assay concerns the target T1, flag-tagged HIF1α (AA 786-826) / His6-tagged p300 (AA 323-423) complex (Homo sapiens, UniProt Q09472).
T1 construct: His6-tagged p300 (AA 323-423); made in house; host or cells: E. coli (pETDuet vector)
Kind of assay: HIF1α p300 displacement assay (TR FRET, +CHAPS). Format: binding. To be noted: read-out: IC50 (nM) (HIF1α_p300 Displacement + CHAPS). How it is done: The ability of peptides to displace HIF1α c-terminal trans-activation domain from p300-CH was measured by a TR FRET assay. A complex of flag-tagged HIF1α (AA 786-826) and His6-tagged p300 (AA 323-423) was co-expressed using pETDuet vector (EMDMillipore, Bellrica Mass.) and purified from E. coli in the presence of 0.1 mM ZnSO4. The complex was diluted to 300 nM final in complete assay media and competitor peptides were added. The complete assay media contained 150 mM NaCl (Sigma +S5150 or equivalent), 20 mM HEPES pH 7.4 (Boston Bioproducts, Ashland, Mass.; #BB-2076), 7.5 mM CHAPS (Thermo #28300 or equivalent), and 1 mM DTT. Protein and peptide were incubated at room temperature for 1 hour before the addition of anti-Flag-K and anti-6×HIS-D2 (CisBio, Bedford Mass.) HTRF reconstitution buffer (50 mM Phosphate pH 7, 0.8 Potassium Flouride, BSA 0.2%)^1 to a final concentration of 0.5 μM and 4 nM respectively. The reaction continued for an additional two hours at room temperature. The reaction was read on a TECAN F500 plate reader with settings recommended by CisBio. The ratio of donor to acceptor fluorescence was calculated. The resulting data was analyzed with Graphpad Prism 5.0. IC50 values were calculated for both proteins using the One Site Fit-LogIC50 equation and presented in the column “IC50 (nM) (HIF1α_p300 Displacement+CHAPS)” of Table 6. ^1 Cisbio USA, Bedford, Mass.; 61HISDLB (lot 007A), 61FG2KLB (024A), HTRF Buffer (62RB3RDF)
Background: TR-FRET usually uses a lanthanide donor and a delayed reading to cut background.
Broadly, the IC50 is the concentration at which inhibition is half-maximal. As for `CCCC[C@@H]1NC(=O)[C@](C)(NC(=O)[C@@H](NC(=O)[C@H](CCC(=O)O)NC(=O)[C@H](CCC(=O)O)NC(=O)[C@H](CC(=O)O)NC(=O)[C@@H](NC(=O)[C@H](CC(N)=O)NC(=O)[C@@H](NC(=O)[C@H](CCC(N)=O)NC(=O)[C@]2(C)CCCC=CCCC[C@](C)(NC(=O)[C@H](CC(C)C)NC(=O)[C@H](CCC(=O)O)NC(=O)[C@H](CCC(=O)O)NC(=O)CNC(=O)[C@H](CCC(N)=O)NC(=O)[C@H](CC(C)C)NC(=O)[C@H](CC(C)C)NC(C)=O)C(=O)N[C@@H](CCCNC(=N)N)C(=O)N[C@@H](C)C(=O)N[C@@H](CC(C)C)C(=O)N2)C(C)C)[C@@H](C)CC)C(C)C)CCCCCCC=CCCC[C@@](C)(C(=O)NCC(N)=O)NC(=O)[C@H](CCC(=O)O)NC(=O)[C@H]([C@@H](C)CC)NC(=O)[C@H](C(C)C)NC(=O)[C@H](CC(C)C)NC(=O)[C@H](CO)NC1=O` [SP-316] (Ac-LLQGEEL[S5]RAL[S5]QVNIDEEV[R8][Nle]SLVIE[S5]G-NH2; staple 8-12, 21-28), the IC50 was over 700 nM.
Under `CCCC[C@@H]1NC(=O)[C@](C)(NC(=O)[C@@H](NC(=O)[C@H](CCC(=O)O)NC(=O)[C@H](CCC(=O)O)NC(=O)[C@H](CC(=O)O)NC(=O)[C@@H](NC(=O)[C@H](CC(N)=O)NC(=O)[C@@H](NC(=O)[C@]2(C)CCCC=CCCCCCC[C@@](C)(NC(=O)[C@H](CCC(=O)O)NC(=O)CNC(=O)[C@H](CCC(N)=O)NC(=O)[C@H](CC(C)C)NC(=O)[C@H](CC(C)C)NC(C)=O)C(=O)N[C@@H](CC(C)C)C(=O)N[C@@H](CC(C)C)C(=O)N[C@@H](CCCNC(=N)N)C(=O)N[C@@H](C)C(=O)N[C@@H](CC(C)C)C(=O)N[C@@H](CC(=O)O)C(=O)N2)C(C)C)[C@@H](C)CC)C(C)C)CCCCCCC=CCCC[C@@](C)(C(=O)NCC(N)=O)NC(=O)[C@H](CCC(=O)O)NC(=O)[C@H]([C@@H](C)CC)NC(=O)[C@H](C(C)C)NC(=O)[C@H](CC(C)C)NC(=O)[C@H](CO)NC1=O` [SP-317] (Ac-LLQGE[R8]LLRALD[S5]VNIDEEV[R8][Nle]SLVIE[S5]G-NH2; staple 6-13, 21-28) stands over 700 nM; under `CCCC[C@@H]1NC(=O)[C@H](CC(C)C)NC(=O)[C@](C)(NC(=O)[C@H](CCC(=O)O)NC(=O)[C@H](CCC(=O)O)NC(=O)[C@H](CC(=O)O)NC(=O)[C@@H](NC(=O)[C@H](CC(N)=O)NC(=O)[C@@H](NC(=O)[C@H](CCC(N)=O)NC(=O)[C@H](CC(=O)O)NC(=O)[C@H](CC(C)C)NC(=O)[C@H](C)NC(=O)[C@H](CCCNC(=N)N)NC(=O)[C@]2(C)CCCC=CCCC[C@](C)(NC(=O)[C@H](CCC(N)=O)NC(=O)[C@H](CC(C)C)NC(=O)[C@H](CC(C)C)NC(C)=O)C(=O)N[C@@H](CCC(=O)O)C(=O)N[C@@H](CCC(=O)O)C(=O)N[C@@H](CC(C)C)C(=O)N2)C(C)C)[C@@H](C)CC)CCCCCCC=CCCC[C@@](C)(C(=O)N[C@@H](CCCC)C(=O)NCC(N)=O)NC(=O)[C@H]([C@@H](C)CC)NC(=O)[C@H](C(C)C)NC(=O)[C@H](CC(C)C)NC(=O)[C@H](CO)NC1=O` [SP-329] (Ac-LLQ[S5]EEL[S5]RALDQVNIDEE[R8]L[Nle]SLVI[S5][Nle]G-NH2; staple 4-8, 20-27), over 700 nM; under `CCCC[C@@H]1NC(=O)[C@H](CC(C)C)NC(=O)[C@](C)(NC(=O)[C@H](CCC(=O)O)NC(=O)[C@H](CCC(=O)O)NC(=O)[C@H](CC(=O)O)NC(=O)[C@@H](NC(=O)[C@H](CC(N)=O)NC(=O)[C@@H](NC(=O)[C@H](CCC(N)=O)NC(=O)[C@]2(C)CCCC=CCCC[C@](C)(NC(=O)[C@H](CC(C)C)NC(=O)[C@H](CCC(=O)O)NC(=O)[C@H](CCC(=O)O)NC(=O)CNC(=O)[C@H](CCC(N)=O)NC(=O)[C@H](CC(C)C)NC(=O)[C@H](CC(C)C)NC(C)=O)C(=O)N[C@@H](CCCNC(=N)N)C(=O)N[C@@H](C)C(=O)N[C@@H](CC(C)C)C(=O)N2)C(C)C)[C@@H](C)CC)CCCCCCC=CCCC[C@@](C)(C(=O)N[C@@H](CCCC)C(=O)NCC(N)=O)NC(=O)[C@H]([C@@H](C)CC)NC(=O)[C@H](C(C)C)NC(=O)[C@H](CC(C)C)NC(=O)[C@H](CO)NC1=O` [SP-331] (Ac-LLQGEEL[S5]RAL[S5]QVNIDEE[R8]L[Nle]SLVI[S5][Nle]G-NH2; staple 8-12, 20-27), over 700 nM.
Regarding `CCCC[C@H](NC(=O)[C@H](CCC(=O)O)NC(=O)[C@@H](NC(=O)[C@@H](NC(=O)[C@H](CC(C)C)NC(=O)[C@H](CO)NC(=O)[C@H](CCCC)NC(=O)[C@H](CC(C)C)NC(=O)[C@@H](NC(=O)[C@H](CCC(=O)O)NC(=O)[C@H](CCC(=O)O)NC(=O)[C@H](CC(=O)O)NC(=O)[C@@H](NC(=O)[C@H](CC(N)=O)NC(=O)[C@@H](NC(=O)[C@H](CCC(N)=O)NC(=O)[C@H](CC(=O)O)NC(=O)[C@H](CC(C)C)NC(=O)[C@H](C)NC(=O)[C@H](CCCNC(=N)N)NC(=O)[C@H](CC(C)C)NC(=O)[C@H](CC(C)C)NC(=O)[C@H](CCC(=O)O)NC(=O)[C@H](CCC(=O)O)NC(=O)CNC(=O)[C@H](CCC(N)=O)NC(=O)[C@H](CC(C)C)NC(=O)[C@H](CC(C)C)NC(C)=O)C(C)C)[C@@H](C)CC)C(C)C)C(C)C)[C@@H](C)CC)C(N)=O` [SP-333] (Ac-LLQGEELLRALDQVNIDEEVL[Nle]SLVIE[Nle]-NH2), the IC50 is 400 to 700 nM.
The result for `CCCC[C@H](NC(=O)[C@]1(C)CCCC=CCCC[C@](C)(NC(=O)[C@H](CCCC)NC(=O)[C@H](CC(C)C)NC(=O)[C@@H](NC(=O)[C@H](C)NC(=O)[C@H](C)NC(=O)[C@H](C)NC(=O)[C@@H](NC(=O)[C@H](CC(N)=O)NC(=O)[C@@H](NC(=O)[C@]2(C)CCCC=CCCCCCC[C@@](C)(NC(=O)[C@H](C)NC(=O)CNC(=O)[C@H](CCC(N)=O)NC(=O)[C@H](CC(C)C)NC(=O)[C@H](CC(C)C)NC(C)=O)C(=O)N[C@@H](CC(C)C)C(=O)N[C@@H](CC(C)C)C(=O)N[C@@H](CCCNC(=N)N)C(=O)N[C@@H](C)C(=O)N[C@@H](CC(C)C)C(=O)N[C@@H](C)C(=O)N2)C(C)C)[C@@H](C)CC)C(C)C)C(=O)N[C@@H](CC(C)C)C(=O)N[C@@H](C(C)C)C(=O)N[C@@H]([C@@H](C)CC)C(=O)N1)C(N)=O` [SP-348] (Ac-LLQGA[R8]LLRALA[S5]VNIAAAVL[Nle][S5]LVI[S5][Nle]-NH2; staple 6-13, 23-27) reads over 700 nM.
In the case of `CCCC[C@H](NC(=O)[C@H](CCC(=O)O)NC(=O)[C@]1(C)CCCC=CCCCCCC[C@@](C)(NC(=O)[C@H](C)NC(=O)[C@H](C)NC(=O)[C@@H](NC(=O)[C@H](CC(N)=O)NC(=O)[C@@H](NC(=O)[C@]2(C)CCCC=CCCCCCC[C@@](C)(NC(=O)[C@H](C)NC(=O)CNC(=O)[C@H](CCC(N)=O)NC(=O)[C@H](CC(C)C)NC(=O)[C@H](CC(C)C)NC(C)=O)C(=O)N[C@@H](CC(C)C)C(=O)N[C@@H](CC(C)C)C(=O)N[C@@H](CCCNC(=N)N)C(=O)N[C@@H](C)C(=O)N[C@@H](CC(C)C)C(=O)N[C@@H](C)C(=O)N2)C(C)C)[C@@H](C)CC)C(=O)N[C@@H](C(C)C)C(=O)N[C@@H](CC(C)C)C(=O)N[C@@H](CCCC)C(=O)N[C@@H](CO)C(=O)N[C@@H](CC(C)C)C(=O)N[C@@H](C(C)C)C(=O)N1)C(N)=O` [SP-356] (Ac-LLQGA[R8]LLRALA[S5]VNIAA[R8]VL[Nle]SLV[S5]E[Nle]-NH2; staple 6-13, 19-26), the IC50 was over 700 nM.
The result for `CCCC[C@H](NC(=O)[C@H](CC(C)C)NC(=O)[C@@H](NC(=O)[C@H](CCC(=O)O)NC(=O)[C@H](CCC(=O)O)NC(=O)[C@H](CC(=O)O)NC(=O)[C@@H](NC(=O)[C@H](CC(N)=O)NC(=O)[C@@H](NC(=O)[C@H](CCC(N)=O)NC(=O)[C@H](CC(=O)O)NC(=O)[C@H](CC(C)C)NC(=O)[C@H](C)NC(=O)[C@H](CCCNC(=N)N)NC(=O)[C@]1(C)CCCC=CCCC[C@](C)(NC(=O)[C@H](CCC(N)=O)NC(=O)[C@H](CC(C)C)NC(=O)[C@H](CC(C)C)NC(C)=O)C(=O)N[C@@H](CCC(=O)O)C(=O)N[C@@H](CCC(=O)O)C(=O)N[C@@H](CC(C)C)C(=O)N1)C(C)C)[C@@H](C)CC)C(C)C)C(=O)N[C@@]1(C)CCCC=CCCC[C@@](C)(C(=O)N[C@@H](CCCC)C(=O)N[C@@H](C)C(=O)N[C@@H](CC(C)C)C(N)=O)NC(=O)[C@H]([C@@H](C)CC)NC(=O)[C@H](C(C)C)NC(=O)[C@H](CC(C)C)NC1=O` [SP-370] (Ac-LLQ[S5]EEL[S5]RALDQVNIDEEVL[Nle][S5]LVI[S5][Nle]AL-NH2; staple 4-8, 23-27) reads over 700 nM; that for “SP-72 (Ac-FIDEEVL[Nle][S5]L[Ala(3-Me-diazirin-3-yl)]I[S5][Nle]ALDRI-NH2; staple 9-13)”, 400 to 700 nM.
